Results taken from patent publication EP4763837A1, “PHOTOCHROMIC COMPOUND, CURABLE COMPOSITION, OPTICAL ARTICLE, LENS, AND EYEGLASSES” (TOKUYAMA CORPORATION, priority 2023, dated 2025).
Several values for one entry are separate records, joined by “and”; a condition that tells them apart may be missing. Equal entries are not always repeated.

Experiments:
Assay type in all cases: physicochemical
[1] = Photochromic property of photochromic cured product made by kneading method; settings: for Residual ratio: A96/A0 x 100 after 96 hours accelerated degradation, xenon weather meter X25; for Color developing density at 23°C: absorbance difference after 240 seconds irradiation at the maximum absorption wavelength of the same line
Description: (§1) The resulting photochromic laminates were evaluated by the below-mentioned methods. • (1) Photochromic property • [1] Maximum absorption wavelength (λmax): This is the maximum absorption wavelength after color development determined by a spectrophotometer manufactured by Otsuka Electronics Co., Ltd. (instantaneous multichannel photo detector MCPD3000) and was used as an index of a color tone upon color development. • [2] Color developing density at 23°C (A23): This is a difference between an absorbance {ε(240)} after irradiation with light at 23°C for 240 seconds and an absorbance ε(0) when not irradiated with light at the maximum absorption wavelength and was used as an index of a color developing density. The higher this value is, the better a photochromic property is. • [3] Color fading half-life at 23°C [τ1/2 (sec).)]: This is a period of time taken by an absorbance at the maximum absorption wavelength of a sample to decrease to 1/2 of {ε(240)-ε(0)} when irradiation is stopped after irradiation with light at 23°C for 240 seconds, and was used as an index of a color fading rate. The shorter this period of time is, the faster the color fading rate is. • [4] Residual ratio (A96/A0 x 100): The resulting photochromic plastic lens was subjected to accelerated degradation for 96 hours using a xenon weather meter X25 manufactured by Suga Test Instruments Co., Ltd. Color developing densities were then evaluated before and after a test, and a color developing density before the test (A0) and a color developing density after the test (A96) were measured. A ratio (A96/A0) was determined as a residual ratio and was used as an index of color development durability. The higher the residual ratio is, the more durable the color development is.
First, the photochromic compound obtained in Example 1, an additive, and a polymerizable compound were mixed to obtain a curable composition. The polymerizable compound was a combination of the following polymerizable monomers: • · 1,3-Bis(isocyanatomethyl)cyclohexane: 36.7 parts by mass • · Pentaerythritol tetrakis(3-mercaptopropionate): 39.4 parts by mass • · Polyoxyethylene polyoxypropylene lauryl ether (WONDERSURF 140 manufactured by AOKI OIL INDUSTRIAL Co., Ltd.): 17.4 parts by mass • · 1-Decanethiol: 2.8 parts by mass • · RX-1 prepared by the method described in Patent Document 14: 3.8 parts by mass
Note that, in the curable composition, the photochromic compound was added in an amount of 0.106 mmol taking a total amount of the polymerizable monomers as 100 g.
The following additives were used: • · Dimethyltin dichloride: 0.05 parts by mass • · Irganox 245: 0.1 parts by mass • · 2-Ethylhexyl […]: 0.6 parts by mass
After the thus-prepared curable composition was thoroughly defoamed, it was poured into a glass mold with a gap of 1 mm and polymerized by casting polymerization. […] After the polymerization, the resulting cured product was removed from the glass mold to obtain a photochromic cured product with a thickness of 1 mm. The resulting photochromic cured product was evaluated in the same manner as for Example 23.
Photochromic cured products were produced using the photochromic compounds shown in Table 4 in the same manner as in Example 50.

[2] = Photochromic property of photochromic laminate made by coating method; settings: for Residual ratio: laminate by coating method, A96/A0 x 100 after 96 hours accelerated degradation, xenon weather meter X25
Outline: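 Compound at 0.25 mmol per 100 g methacrylate monomer mix, spin-coated 40 µm on a primed thiourethane lens, photocured 90 s under N2, then 110°C for 1 h. λmax and A23 measured after 240 s irradiation at 23°C; τ1/2 is time to half-fade after irradiation stops. Residual ratio A96/A0 after 96 h xenon weathering.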

[3] = Photochromic property of binder sheet (photochromic layer made by binder method); settings: for Color developing density at 23°C: absorbance difference after 240 seconds irradiation at the maximum absorption wavelength of the same line; for Residual ratio: A96/A0 x 100 after 96 hours accelerated degradation, xenon weather meter X25
Description: as §1
A binder sheet was produced as follows. The binder sheet was made by laminating a first optical sheet, a first adhesive layer, a photochromic layer, a second adhesive layer, and a second optical sheet in this order. A polycarbonate sheet with a thickness of 400 µm was used as the first optical sheet and the second optical sheet.
A 2 L four-necked flask equipped with a stirring blade, a condense tube, a thermometer, and a nitrogen gas inlet tube was charged with 315 parts by mass of polycarbonate diol with a number average molecular weight of 1000, 100 parts by mass of isophorone diisocyanate, and 72 parts by mass of toluene and reacted under a nitrogen atmosphere at 100°C for 7 hours. Thus, a urethane prepolymer with a terminal isocyanate group was synthesized. After the reaction of the above-mentioned urethane prepolymer was completed, the resulting reaction liquid was cooled to about 0°C and dissolved in 205 parts by mass of tertiary-butyl alcohol and 382 parts by mass of diethyl ketone, and then a temperature of the resulting liquid was kept at 0°C. Next, a mixed solution of 21.3 parts by mass of bis-(4-aminocyclohexyl)methane serving as a chain extender and 20 parts by mass of diethyl ketone was added dropwise thereto within 30 minutes and reacted at 0°C for 1 hour. Then, 8.1 parts by mass of 1,2,2,6,6-pentamethyl-4-aminopiperidine was added dropwise thereto and reacted at 0°C for 1 hour to obtain a solution of a terminal non-reactive urethane urea resin in diethylketone.
One hundred parts by mass of the resulting solution of a terminal non-reactive urethane urea resin, 6.3 parts by mass of Example 1 (a photochromic compound represented by Formula (1-7), an isomer mixture of 4,4'-methylenebis(cyclohexylisocyanate) (polyisocyanate compound)), 0.4 parts by mass of ethylenebis(oxyethylene) bis[3-(5-tert-butyl-4-hydroxy-m-tolyl) propionate] serving as an antioxidant, and 0.06 parts by mass of L-7001 manufactured by DuPont Toray Specialty Materials K.K. serving as a surfactant were added and stirred and mixed at room temperature to obtain a composition for forming a photochromic layer. […]

Structure (SMILES) | Residual ratio [1] | Color developing density at 23°C [1] | Color fading half-life at 23°C [2] | Residual ratio [2] | Color developing density at 23°C [3] | Residual ratio [3]
CCCCC1(CC)c2ccccc2-c2c1c1c(c3cc(OC)c(C)cc23)OC(c2ccc(OC)cc2)(c2ccc(OCCC)cc2)C=C1 (stereo not drawn) [Formula (2-2)] | 78% | 0.90 - and 0.89 - | 1.65 min | 68% | 0.89 - and 0.83 - | –
CCCC1(CC)c2ccccc2-c2c1c1c(c3cc(OC)c(Sc4c(C)cccc4C)cc23)OC(c2ccc(OC)cc2)(c2ccc(N3CCOCC3)cc2)C=C1 (stereo not drawn) [Formula (4-5)] | 79% and 77% | 0.77 - and 0.74 - | 0.717 min | – | 0.76 - and 0.75 - | 90%
CCC1(C)c2ccccc2-c2c1c1c(c3cc(OC)c(-c4ccc(OC)cc4OC)cc23)OC(c2ccc(OC)cc2)(c2ccc(N(C)c3ccccc3)cc2)C=C1 (stereo not drawn) [Formula (13-2)] | 72% and 71% | 0.75 - and 1.05 - | – | 63% | 0.74 - and 1.05 - | 82% and 83%
